# Assay: gradient 5% acetonitrile 3 min, to 50% in 2 min, to 85% in 15 min, held 3 min, 100 µL/min
# Details: column: Zorbax Extend-C18 2.1 x 50 mm; eluents: water / acetonitrile, 0.1% formic acid
# Summary of the method: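 The mobile phases were water and acetonitrile, each with 0.1% formic acid, pumped at 100 μL/min through a Zorbax Extend-C18 column (2.1 × 50 mm, 1.8 μm). Pure standards were injected as mixtures of ~100 molecules and detected by a quadrupole time-of-flight mass spectrometer in positive and negative ionization mode. Retention time came from computationally picked adduct peaks, each inspected by hand.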
row,RP-LC retention time [s],Structure (SMILES)
1,884,CCc1noc(NC(C)=O)c1-c1ccc(C)c(S(=O)(=O)Nc2cc(C)ccc2OC)c1
2,854,COCCN1C(=O)CCc2cc(NS(=O)(=O)c3ccc4c(c3)CCC4)ccc21
3,682,CC(=O)Nc1ccc(-n2cnc(C(=O)N3CCN(c4ccc(C)cc4)CC3)c2)nc1
4,742,COc1ccc(C(=O)NC2CCN(c3ccc(=O)n(C)n3)C2)c(OC)n1 (stereo not given)
5,718,CCOc1ccc(-c2nc(CN3CCN(C(=O)NC4CCCCC4)CC3)c(C)o2)cc1
6,1030,CCOc1ccc(NS(=O)(=O)c2cc(C(=O)N3CCN(c4ccc(C)cc4C)CC3)n[nH]2)cc1
7,609,CCCN1CCN(CCCNC(=O)c2c(-c3ccc(Br)s3)noc2C)CC1
8,1100,COC(=O)C(C)n1nc2nc(Nc3ccc(C)c(F)c3)cc(C)n2c1=O (stereo not given)
9,1140,Cc1cc(-c2c(C)sc(C)c2S(=O)(=O)NC2CCC(C)CC2)n[nH]1 (stereo not given)
10,970,COC(=O)c1cc(C)nc2c1c(=O)n(Cc1cccc(OC)c1)c(=O)n2C
11,789,O=C(NCC1CCCO1)C1CCN(S(=O)(=O)c2ccc(-c3noc(C4CC4)n3)cc2)CC1 (stereo not given)
12,918,Cc1ccccc1CNC(=O)C1=C2CCCN2c2ccc(F)cc2S1(=O)=O
13,655,Cc1nc(CNC(=O)C2CCN(C(=O)Nc3ccccc3Br)CC2)cs1
14,880,Cc1ccc(NS(=O)(=O)c2cc3c(s2)CCN(C(=O)C2CC2)C3)cc1F
15,812,CCc1cc(=O)n(CC(=O)NCc2ccc(F)cc2F)c(N)n1
16,569,CN1CCCc2cc(C(CNC(=O)C(=O)NCc3ccc(F)cc3)N3CCOCC3)ccc21 (stereo not given)
17,554,O=C(NCC1CCN(Cc2ccsc2)CC1)Nc1ccc2c(c1)OCO2
18,578,CN1CCN(CCNC(=O)Cn2c(=O)c3cccn3c3ccc(F)cc32)CC1
19,693,CCc1ccc(S(=O)(=O)N2CCN(c3ccc4nncn4n3)CC2)s1
20,785,O=C(NC1CC1)c1ccc(OCC2CCCN2C(=O)c2cc(F)ccc2F)cc1 (stereo not given)
21,695,COCCc1noc(-c2ccc(=O)n(CC(=O)Nc3ccccc3F)c2)n1
22,1090,CC1CCC(NC(=O)CN2C(=O)C(C(=O)N3CCCCC3)Sc3ccccc32)CC1 (stereo not given)
23,769,Cc1cc(C)c(NC(=O)C2CCCN(c3nnc(C)c4c(C)n(-c5ccccc5)nc34)C2)c(C)c1 (stereo not given)
24,594,Cc1cccc(NC(=O)Cn2ncn3c(C)c(C(=O)NCC(C)C)c(C)c3c2=O)c1
25,894,CCOc1ccc2nc(NC(=O)Cn3nc(C(=O)N4CCCC4)c4ccccc43)sc2c1

row,RP-LC retention time [s],Structure (SMILES)
1,1020,CCOC(=O)c1c(C)oc2nc(C)nc(N3CCN(c4ccccc4OC)CC3)c12
2,573,CCc1cc(C(=O)N2CCN(c3ccccn3)CC2)nc2ccnn12
3,594,COC(=O)c1c(C)[nH]c(C(=O)N2CCC(CC(=O)N3CCN(C4CCCCC4)CC3)CC2)c1C
4,984,COc1cc(NC(=O)C2CCCN(c3nccnc3Sc3ccccc3)C2)cc(OC)c1OC (stereo not given)
5,812,O=C(C1CC1)N1CCc2sc(S(=O)(=O)NCc3ccc4c(c3)OCO4)cc2C1
6,906,CCOC(=O)C1=C(C)NC2=C(C(=O)C(C(=O)OC)C(C)C2)C1c1ccccc1OCC (stereo not given)
7,634,CCc1ccc(-n2nnc(C(=O)N3CCC(N4CCCCC4)CC3)c2-c2ccncc2)cc1
8,716,CCNC(=O)C1CCCN(c2nc3ncn(CC(=O)NCc4ccc(C)cc4)c(=O)c3s2)C1 (stereo not given)
9,830,Cc1ccc(N2N=C(C(=O)N3CCCC3)S(=O)(=O)c3cccnc32)cc1
10,693,Cc1ccc(NC(=O)Cn2cnc3nc(N4CCC(C(=O)NC5CC5)CC4)sc3c2=O)cc1C
11,945,CCOc1ccc(NC(=O)CN2C(=O)C3CCCCN3c3ccc(S(=O)(=O)N(C)C)cc32)cc1 (stereo not given)
12,908,CCc1noc2nc(C)n(CC(=O)NCCC3=CCCCC3)c(=O)c12
13,649,CCCc1cc(N2CCN(C(=O)c3ccc(N(C)C)cc3)CC2)nc2nnc(CC)n12
14,589,COC1C(=O)N(C2CCN(C(=O)c3sc(C)nc3C)CC2)C12CCOCC2 (stereo not given)
15,777,Cc1cc(C)n2nc(CN(C(=O)c3cccs3)c3ccccc3)nc2n1
16,675,Cn1cnc(S(=O)(=O)N2CCC(C(=O)Nc3ccccc3)CC2)c1
17,847,O=C(NCc1ccccc1Cl)C1CCN(c2nnc(-c3ccccc3)o2)CC1
18,702,CCn1cnc(S(=O)(=O)N2CCCC(C(=O)NCCc3ccccc3)C2)c1 (stereo not given)
19,1010,CCc1nc(-c2csc(S(=O)(=O)N3CCCC(C(=O)Nc4ccccc4F)C3)c2)no1 (stereo not given)
20,756,CSc1cccc(NC(=O)COc2cc(C(F)(F)F)c3c(C)nn(C)c3n2)c1
21,640,Cc1ccc2c(c1)c(=O)c1c(n2C)CCN(CC(=O)Nc2ccccc2Cl)C1
22,606,CC1CCN(c2ccc(N3CCN(S(=O)(=O)c4cc(F)ccc4F)CC3)nn2)CC1
23,682,O=C(CN1CCN(Cc2ccccc2)C1=O)NCC1CCCCC1
24,742,Cc1nn2c(CNC(=O)c3ccoc3)c(-c3ccccc3)nc2s1

# Continued, compound first:
row,Structure (SMILES),RP-LC retention time [s]
1,NC(=O)C1CCCN(C(=O)c2ccc(F)cc2F)C1 (stereo not given),599
2,O=c1c(-c2ccccc2)c(N2CCN(c3ccccn3)CC2)c1=O,620
3,Cc1ccc(C(=O)NCC2CCCO2)cc1 (stereo not given),642
4,COCCn1cc(CCNC(=O)Nc2cccc(Cl)c2F)c2cccnc21,798
5,CCOc1ccc(CC(=O)N2CC(=O)Nc3ccccc32)cc1,706
6,COc1ccc(CCNC(=O)CSC2=Nc3ccc(C)cc3OC2)cc1OC,750
7,CC(C)Cn1nc2c(S(=O)(=O)N3CCN(c4ccc(F)cc4)CC3)cccn2c1=O,914
8,Cc1ccc(-c2nc3cnccn3c2NCCC(=O)NC(C)c2ccccn2)cc1 (stereo not given),586
9,CCOc1ccc(-c2cc3c(=O)n(Cc4nc(-c5cccc(C(F)(F)F)c5)no4)ncn3n2)cc1,1250
10,COc1ccc(C(=O)CN(Cc2ccccc2)C2=NCCS2)cc1,600
11,Cc1cc(C2CCCN2C(=O)NC(C)(C)C)no1 (stereo not given),752
12,O=C(Nc1cccc2ccccc12)c1ccc(F)cc1,812
13,COc1ccc(Nc2c(-c3ccc(SC)cc3)nc3cnccn23)cc1,908
14,CCCOc1ccc2nc(NC(=O)OC)[nH]c2c1,652
15,Cc1cc(C)n2nc(SCC(=O)NC(C)C)nc2n1,613
16,CCCCS(=O)(=O)NCC#CCN1CCc2ccccc2C1,564
17,CCCCOc1ccc(C(=O)Nc2nc3c(s2)CCc2ccc(OC)cc2-3)cc1,1360
18,COc1cc2c(cc1CNC(=O)COc1ccc(Cl)cc1)OCCCO2,982
19,CCc1noc(NC(C)=O)c1-c1ccc(OC)c(S(=O)(=O)NCc2ccc(F)cc2)c1,794
20,O=C1NC(c2cccc3ccccc23)Nc2ccc(Cl)cc21 (stereo not given),847
21,Cc1ccc2[nH]cc(CCN3CC(C(=O)Nc4ccc(F)cc4F)CC3=O)c2c1 (stereo not given),835

row,Structure (SMILES),RP-LC retention time [s]
1,CCOC(=O)c1sc(NC(=O)C(CC)Sc2nc(C)cc(C)n2)nc1C (stereo not given),1080
2,Cc1cc(S(=O)(=O)NCC2CCCO2)cc([N+](=O)[O-])c1C (stereo not given),778
3,CCCc1c(C(=O)O)nnn1Cc1ccccc1,746
4,CC(C)(C)NC(=O)N1CC(N(Cc2ccncc2)S(C)(=O)=O)C1,573
5,CC(NC(=O)C1CCCN(c2nccnc2Oc2ccccc2)C1)c1ccccc1 (stereo not given),986
6,Cc1cc(C(=O)NC(C)C)c2cc(F)ccc2n1,639
7,O=C(C1=CCN(Cc2cccc(F)c2)CC1)N1CCN(c2ccccc2F)CC1,666
8,CCn1nnc2ccc(-c3noc(-c4cccc(C#N)c4)n3)cc21,957
9,CCN1C(=O)COc2ccc(-c3noc(-c4cc(OC)cc(OC)c4)n3)cc21,1040
10,COCCn1cc(CCNC(=O)Nc2ccccc2Cl)c2cccnc21,752
11,O=S(=O)(c1ccc(Cl)cc1)N1CCN(c2ccnc3cc(Cl)ccc23)CC1,758
12,O=C(CC1CCCC1)N1CCN(c2nnc3ccc(C(F)(F)F)cn23)CC1,797
13,CCCCCOc1ccc(Nc2nc(C(=O)OCC)nc3ccccc23)cc1,789
14,CCc1ccccc1S(=O)(=O)N1C[C@H](F)C[C@@H]1C(=O)N1CCOCC1,740
15,CN(C)C(=O)CC1CCOC2(CCN(C(=O)CCn3cnnn3)CC2)C1 (stereo not given),604
16,COc1ccc(-c2cc(C(F)(F)F)n3nc(C(=O)O)c(Cl)c3n2)cc1OC,855
17,Cc1ccc(C2Cn3nnc(-c4nc(-c5ccccc5Br)no4)c3CO2)c(C)c1 (stereo not given),1270
18,CCN1CCN(Cc2nc(-c3ccc(N(C)Cc4ccccc4)nc3)no2)CC1,892
19,COC(=O)c1c(-c2ccc(Cl)cc2)noc1NCCCN1CCOCC1,667
20,CN(CC(=O)N1CCN(c2ccccc2F)CC1)S(=O)(=O)c1c[nH]c(C(=O)N2CCCCC2)c1,836

# From the METLIN SMRT retention time set (Domingo-Almenara et al. 2019)
